In patent US8883745B2, “C—glycolipids with enhanced Th-1 profile” (New York University, priority 2006, dated 2014):

Assays:
IFN-γ = test: In vitro IFN-γ ELISPOT assay using PBMCs and immature DCs; assay type: cell-based, human; settings: 100 ng/ml glycolipid, 22-26 hours co-culture with immature DCs
Description: CD14+ cells were isolated from leukopaks, using magnetic beads (Miltenyi biotec, Auburn, Calif.) coupled to an anti-CD14 monoclonal antibody. Immature dendritic cells (DCs) were then generated from the CD14+ cells after a three-day incubation in the presence of 300 U/ml GM-CSF (R&D systems, Minneapolis, Minn.) and 100 U/ml IL-4 (R&D systems, Minneapolis, Minn.). CD14-cells were used as Peripheral Blood Mononuclear Cells (PBMCs) for the following experiments.
96 well nitrocellulose plates (Milititer HA, Millipore) were coated with 10 μg/ml of anti-human interferon γ mAb (Mabtech, Ohio), contained in 75 μl of PBS. After overnight incubation at room temperature, the wells were washed repeatedly and blocked with culture medium for 1 hour at 37° C. Following irradiation with 3000 rads, 5×10^4 immature dendritic cells were co-cultured with 5×10^5 of syngeneic CD14− PBMCs in the presence of 100 ng/ml of various glycolipids (i.e., GCK109 [A-1 trans-conformer], GCK151 [A-1 cis-conformer], GCK127 [A-2], GCK152 [A-7], and control compounds CRONY=α-C-GalCer and KRN=α-GalCer) in the ELISPOT plate for 22-26 hours at 37° C. and 5% CO2. […] After 10 to 15 minutes, the number of spots corresponding to IFN-γ secreting cells was determined using a stereomicroscope. […]

IL-4 = test: In vitro IL-4 ELISPOT assay using PBMCs and immature DCs; assay type: cell-based, human; settings: 100 ng/ml glycolipid, 22-26 hours co-culture with immature DCs

| Structure (SMILES) | frequency of PBMCs secreting IFN-γ (ELISPOT), compared with KRN (IFN-γ) | frequency of PBMCs secreting IL-4 (ELISPOT), compared with KRN (IL-4) |
| --- | --- | --- |
| CCCCCCCCCCCCCC[C@@H](O)[C@@H](O)[C@H](/C=C/[C@H]1OC(CO)[C@H](O)[C@H](O)C1O)NC(=O)CCCCCCCc1ccccc1 (stereo partly shown) [A-7] | high frequency | high frequency |
| CCCCCCCCCCCCCCCCCC/C=C\CCCCCCCCC(=O)N[C@@H](/C=C/[C@H]1OC(CO)[C@H](O)[C@H](O)C1O)[C@H](O)[C@H](O)CCCCCCCCCCCCCC (stereo partly shown) [GCK151] | high frequency | high frequency |
